Key:
[1] = test system: NOMO1; assay: AUC of viability dose-response curve (% viability x log10 dose units); higher = less sensitive; conditions: 48 h
Method in brief: (§1)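 Leukemia cells adapted to each medium were seeded at 500 or 1000 cells/well in 1536-well plates and dosed with library compounds in DMSO at 11 threefold doses from 47 μM to 0.79 nM for 48 h at 37°C. CellTiter-Glo One luminescence was normalised per plate to DMSO and cell-free wells, then fitted with a four-parameter log-logistic model over log10 doses. Area under the curve was taken from this fit by the trapezoidal rule, with curves above full viability scaled and curves failing quality control removed.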

[2] = test system: P12-Ichikawa; assay: as above; conditions: 48 h
Method in brief: as §1

[3] = test system: SEM cells; assay: as above; conditions: 48 h
Method in brief: as §1

[4] = test system: NOMO1; assay: cell viability relative to DMSO control; higher = less cytotoxic; conditions: RPMI 5 mM glucose + 10% FBS, 48 h
Method in brief: (§2)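 NOMO1 or SEM cells were plated at 500 cells/well and P12-Ichikawa cells at 1000 cells/well in 1536-well plates (5 μl), after each leukemia line had been adapted for at least four passages in each medium. Pin dosing delivered library compounds in DMSO at 11 threefold concentrations, 47 μM to 0.79 nM. CellTiter-Glo One luminescence was read after 48 h at 37°C. Viability is reported as a per-plate percentage of DMSO wells, with cell-free wells as background.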

[5] = test system: P12-Ichikawa; assay: as above; conditions: 48 h
Method in brief: as §2

[6] = test system: SEM cells; assay: as above; conditions: 48 h
Method in brief: as §2

CC(C(=O)O)c1ccc(-c2ccccc2)c(F)c1 (stereo not drawn)
AUC of viability dose-response curve
Conditions | [1] | [2] | [3]
HPLM + 10% dialyzed FBS | 464 | 424 | 442
RPMI 5 mM glucose + 10% FBS | 476 | 432 | 417
RPMI 5 mM glucose + 10% dialyzed FBS | 459 | 424 | 447

C[C@]12CCC(=O)C(O)=C1CC[C@@H]1[C@@H]2CC[C@]2(C)C(=O)CC[C@@H]12
Conditions | AUC of viability dose-response curve | cell viability [%]
[1], HPLM + 10% dialyzed FBS | 467 | –
[1], RPMI 5 mM glucose + 10% FBS | 454 | –
[1], RPMI 5 mM glucose + 10% dialyzed FBS | 462 | –
[2], HPLM + 10% dialyzed FBS | 468 | –
[2], RPMI 5 mM glucose + 10% FBS | 455 | –
[2], RPMI 5 mM glucose + 10% dialyzed FBS | 459 | –
[3], HPLM + 10% dialyzed FBS | 473 | –
[3], RPMI 5 mM glucose + 10% FBS | 471 | –
[3], RPMI 5 mM glucose + 10% dialyzed FBS | 460 | –
[4], 0.000781 µM | – | 123
[4], 0.00234 µM | – | 114
[4], 0.00702 µM | – | 105
[4], 0.0211 µM | – | 123
[4], 0.0632 µM | – | 129
[4], 0.19 µM | – | 110
[4], 0.569 µM | – | 128
[4], 1.71 µM | – | 104
[4], 5.12 µM | – | 107
[4], 15.4 µM | – | 98.9
[4], 46.1 µM | – | 95

cell viability [%]
Conditions | HPLM + 10% dialyzed FBS | RPMI 5 mM glucose + 10% FBS | RPMI 5 mM glucose + 10% dialyzed FBS
[5], 0.000781 µM | 122 | – | 112
[5], 0.00234 µM | 125 | – | 124
[5], 0.00702 µM | 122 | – | 132
[5], 0.0211 µM | 119 | – | 121
[5], 0.0632 µM | 119 | – | 121
[5], 0.19 µM | 122 | – | 115
[5], 0.569 µM | 128 | – | 130
[5], 1.71 µM | 117 | – | 126
[5], 5.12 µM | 120 | – | 101
[5], 15.4 µM | 111 | – | 108
[5], 46.1 µM | 104 | – | 104
[6], 0.000781 µM | 98.8 | 98.2 | 119
[6], 0.00234 µM | 113 | 128 | 120
[6], 0.00702 µM | 110 | 123 | 120
[6], 0.0211 µM | 114 | 106 | 130
[6], 0.0632 µM | 120 | 122 | 107
[6], 0.19 µM | 117 | 116 | 112
[6], 0.569 µM | 113 | 127 | 121
[6], 1.71 µM | 121 | 111 | 123
[6], 5.12 µM | 108 | 103 | 107
[6], 15.4 µM | 101 | 114 | 116
[6], 46.1 µM | 104 | 112 | 111

CC1CCN(c2cc(N3CCN(C)CC3)ccc2NC(=O)c2cc(C#N)c[nH]2)CC1
cell viability [%]
Conditions | HPLM + 10% dialyzed FBS | RPMI 5 mM glucose + 10% FBS | RPMI 5 mM glucose + 10% dialyzed FBS
[5], 0.000781 µM | – | – | 124
[5], 0.00234 µM | – | – | 119
[5], 0.00702 µM | – | – | 122
[5], 0.0211 µM | – | – | 126
[5], 0.0632 µM | – | – | 133
[5], 0.19 µM | – | – | 119
[5], 0.569 µM | – | – | 115
[5], 1.71 µM | – | – | 121
[5], 5.12 µM | – | – | 106
[5], 15.4 µM | – | – | 106
[5], 46.1 µM | – | – | 99.9
[6], 0.000781 µM | 122 | 119 | –
[6], 0.00234 µM | 119 | 124 | –
[6], 0.00702 µM | 120 | 136 | –
[6], 0.0211 µM | 129 | 137 | –
[6], 0.0632 µM | 129 | 123 | –
[6], 0.19 µM | 121 | 123 | –
[6], 0.569 µM | 124 | 133 | –
[6], 1.71 µM | 118 | 129 | –
[6], 5.12 µM | 112 | 92.9 | –
[6], 15.4 µM | 102 | 102 | –
[6], 46.1 µM | 93.6 | 83.5 | –

AUC of viability dose-response curve
Conditions | [1] | [2] | [3]
HPLM + 10% dialyzed FBS | 457 | 450 | 456
RPMI 5 mM glucose + 10% FBS | 463 | 453 | 444
RPMI 5 mM glucose + 10% dialyzed FBS | 454 | 453 | 451

CC(=O)O/N=C1/C(=C2\C(=O)Nc3cc(Br)ccc32)Nc2ccccc21
cell viability [%], [6]
Conditions | HPLM + 10% dialyzed FBS | RPMI 5 mM glucose + 10% FBS | RPMI 5 mM glucose + 10% dialyzed FBS
0.000781 µM | 128 | 112 | 113
0.00234 µM | 110 | 116 | 122
0.00702 µM | 119 | 109 | 122
0.0211 µM | 118 | 108 | 129
0.0632 µM | 111 | 119 | 100
0.19 µM | 113 | 102 | 95
0.569 µM | 86.1 | 87.6 | 84.6
1.71 µM | 37.8 | 29.5 | 30.1
5.12 µM | 32.8 | 22.4 | 37.5
15.4 µM | 13.2 | 8.09 | 11.8
46.1 µM | 2.6 | 0.612 | 1.61

AUC of viability dose-response curve
Conditions | [1] | [2] | [3]
HPLM + 10% dialyzed FBS | 431 | 439 | 324
RPMI 5 mM glucose + 10% FBS | 450 | 443 | 317
RPMI 5 mM glucose + 10% dialyzed FBS | 443 | 437 | 308

CC(CCc1ccc(O)cc1)NCCc1ccc(O)c(O)c1 (stereo not drawn)
[6], HPLM + 10% dialyzed FBS
Conditions | cell viability [%]
0.000781 µM | 117
0.00234 µM | 113
0.00702 µM | 138
0.0211 µM | 145
0.0632 µM | 133
0.19 µM | 141
0.569 µM | 132
1.71 µM | 128
5.12 µM | 114
15.4 µM | 90.5
46.1 µM | 19.8

AUC of viability dose-response curve
Conditions | [1] | [2] | [3]
HPLM + 10% dialyzed FBS | 463 | 441 | 436
RPMI 5 mM glucose + 10% FBS | 461 | 450 | 415
RPMI 5 mM glucose + 10% dialyzed FBS | 452 | 453 | 439
